{"source": "patent US20230399341A1", "about": "“7-PHENYL SUBSTITUTED 2-AMINOQUINAZOLINE INHIBITORS OF HPK1” (MERCK SHARP & DOHME LLC, priority 2020, published 2023)", "biological_target": "T1, Human HPK1, catalytic domain (Homo sapiens, UniProt Q92918)", "T1 sequence (Q92918 1-346)": "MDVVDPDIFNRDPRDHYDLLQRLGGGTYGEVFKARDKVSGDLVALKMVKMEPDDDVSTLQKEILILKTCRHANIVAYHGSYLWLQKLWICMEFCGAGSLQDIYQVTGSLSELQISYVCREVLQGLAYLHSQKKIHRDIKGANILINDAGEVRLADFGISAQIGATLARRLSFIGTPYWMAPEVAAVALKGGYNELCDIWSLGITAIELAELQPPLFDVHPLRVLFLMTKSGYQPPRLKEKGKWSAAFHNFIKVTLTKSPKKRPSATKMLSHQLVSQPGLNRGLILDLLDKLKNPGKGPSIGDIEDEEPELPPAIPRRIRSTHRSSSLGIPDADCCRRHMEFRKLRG", "test": "HPK1-SLP76 TR-FRET Assay", "type": "biochemical", "conditions": "75 pM HPK1, ATP 10 uM, SLP76 10 nM, 30 min pre-incubation, 60 min reaction", "note": "pIC50: −log10 of the molar value."}
{"compound": "CNC(=O)C1(c2ccc(Nc3ncc4c(N)c(F)c(-c5cnc6c(c5C)NCCO6)cc4n3)cc2)CCC1", "note": "[Compound 2-82, 1-(4-((5-amino-6-fluoro-7-(8-methyl-2,3-dihydro-1H-pyrido[2,3-b][1,4]oxazin-7-yl)quinazolin-2-yl)amino)phenyl)-N-methylcyclobutane-1-carboxamide]", "values": [{"measurement": "pIC50", "value": 10.51}]}
{"compound": "COc1cc2c(cc1Nc1ncc3ccc(NCC(=O)N4CCCC4)cc3n1)CN(C)CC2", "note": "[Compound 3-65, 2-({2-[(6-methoxy-2-methyl-1,2,3,4-tetrahydroisoquinolin-7-yl)amino]quinazolin-7-yl}-amino)-1-(pyrrolidin-1-yl)ethan-1-one]", "values": [{"measurement": "pIC50", "value": 6.87}]}
{"compound": "COc1cc2c(cc1Nc1ncc3c(N)c(F)c(-c4cnc5c(c4C)NCCO5)cc3n1)C(CO)N(C)CC2", "note": "(racemic) [Compound 2-46, (R and S)-(7-{[5-amino-6-fluoro-7-(8-methyl-2,3-dihydro-1H-pyrido[2,3-b][1,4]oxazin-7-yl)quinazolin-2-yl]amino}-6-methoxy-2-methyl-1,2,3,4-tetrahydroisoquinolin-1-yl)methanol]", "values": [{"measurement": "pIC50", "value": 8.51}]}
{"compound": "COc1cc2c(cc1Nc1ncc3ccc(NCC4CC(=O)N(C)C4)cc3n1)CN(C)CC2", "note": "(racemic) [Compound 3-59, (S and R)-4-[({2-[(6-methoxy-2-methyl-1,2,3,4-tetrahydroiso-quinolin-7-yl)amino]quinazolin-7-yl}amino)methyl]-1-methyl-pyrrolidin-2-one]", "values": [{"measurement": "pIC50", "value": 6.44}]}
{"compound": "COc1cc2c(cc1Nc1ncc3ccc(-c4cncc5[nH]ccc45)cc3n1)CNCC2", "note": "[Compound 1-45, N-(6-methoxy-1,2,3,4-tetrahydroisoquinolin-7-yl)-7-(1H-pyrrolo[2,3-c]pyridin-4-yl)quinazolin-2-amine]", "values": [{"measurement": "pIC50", "value": 9.05}]}
{"compound": "COc1cc2c(cc1Nc1ncc3ccc(OCc4ccc5c(c4)CNC5)cc3n1)CN(C)CC2", "note": "[Compound 4-2, 7-[(2,3-dihydro-1H-iso-indol-5-yl)methoxy]-N-(6-methoxy-2-methyl-1,2,3,4-tetrahydroisoquinolin-7-yl)-quinazolin-2-amine]", "values": [{"measurement": "pIC50", "value": 8.33}]}
{"compound": "CNC(=O)C1(c2ccc(Nc3ncc4c(N)c(F)c(-c5cnc6c(c5C)NCCO6)cc4n3)cc2)CCCCC1", "note": "[Compound 2-80, 1-(4-((5-amino-6-fluoro-7-(8-methyl-2,3-dihydro-1H-pyrido[2,3-b][1,4]oxazin-7-yl)quinazolin-2-yl)amino)phenyl)-N-methylcyclohexane-1-carboxamide]", "values": [{"measurement": "pIC50", "value": 10.14}]}
{"compound": "Cc1c(-c2cc3nc(Nc4ccc(CS(=O)(=O)C(C)C)cc4)ncc3c(N)c2F)cnc2c1NCCO2", "note": "[Compound 2-157, 6-fluoro-7-(8-methyl-2,3-dihydro-1H-pyrido[2,3-b][1,4]oxazin-7-yl)-N~2~- (4-{[(propan-2-yl)sulfonyl]methyl}phenyl) quinazoline-2,5-diamine]", "values": [{"measurement": "pIC50", "value": 10.16}]}
{"compound": "Cc1ccc(C#N)cc1-c1cc2nc(Nc3ccc(S(C)(=O)=O)cc3)ncc2c(N)c1F", "note": "[Compound 2-52, 3-(5-amino-6-fluoro-2-{[4-(methylsulfonyl)phenyl]amino}quinazolin-7-yl)-4-methylbenzonitrile]", "values": [{"measurement": "pIC50", "value": 6.37}]}
{"compound": "COc1cc2c(cc1Nc1ncc3ccc(N[C@@H]4COC[C@@H]4F)cc3n1)CN(C)CC2", "note": "[Compound 3-67, N~7~-[(3R,4R)-4-fluorooxolan-3-yl]-N~2~-(6-methoxy-2-meth-yl-1,2,3,4-tetrahydroisoquinolin-7-yl)quinazoline-2,7-diamine]", "values": [{"measurement": "pIC50", "value": 6.97}]}
{"compound": "COc1cc2c(cc1Nc1ncc3ccc(Oc4cn[nH]c4)cc3n1)CN(C)CC2", "note": "[Compound 4-5, N-(6-methoxy-2-methyl-1,2,3,4-tetrahydroisoquin-olin-7-yl)-7-[(1H-pyrazol-4-yl)oxy]quinazolin-2-amine]", "values": [{"measurement": "pIC50", "value": 6.59}]}
{"compound": "COc1cc2c(cc1Nc1ncc3ccc(-c4ccc(CC#N)nc4)cc3n1)CN(C)CC2", "note": "[Compound 1-108, (5-{2-[(6-methoxy-2-methyl-1,2,3,4-tetrahydroisoquinolin-7-yl)amino]quinazolin-7-yl}pyridin-2-yl)acetonitrile]", "values": [{"measurement": "pIC50", "value": 7.25}]}
{"compound": "COc1cc2c(cc1Nc1ncc3ccc(-c4cncc(N5CCN(C)CC5)c4)cc3n1)CNCC2", "note": "[Compound 1-54, N-(6-methoxy-1,2,3,4-tetrahydroisoquinolin-7-yl)-7-[5-(4-methylpiperazin-1-yl)pyridin-3-yl]quinazolin-2-amine]", "values": [{"measurement": "pIC50", "value": 7.72}]}
{"compound": "Cc1c(-c2cc3nc(Nc4ccc(C(C)S(C)(=O)=O)cc4)ncc3c(N)c2F)cnc2c1NCCO2", "note": "(single isomer, unassigned) [Compound 2-63, (R or S)-6-fluoro-7-(8-methyl-2,3-dihydro-1H-pyrido[2,3-b][1,4]oxazin-7-yl)-N˜2˜-{4-[1-(methylsulfonyl)ethyl]phenyl}quinazoline-2,5-diamine]", "values": [{"measurement": "pIC50", "value": 10.06}]}
{"compound": "COc1cc2c(cc1Nc1ncc3ccc(Nc4ccc5c(c4)N(C(C)=O)CC5)cc3n1)CN(C)CC2", "note": "[Compound 3-32, 1-[6-({2-[(6-methoxy-2-methyl-1,2,3,4-tetrahydroisoquinolin-7-yl)amino]quinazolin-7-yl}-amino)-2,3-dihydro-1H-indol-1-yl]ethan-1-one]", "values": [{"measurement": "pIC50", "value": 7.24}]}
{"compound": "COc1cc2c(cc1Nc1ncc3ccc(-c4ccc(C#N)cc4C)cc3n1)CNCC2", "note": "[Compound 1-33, 4-{2-[(6-methoxy-1,2,3,4-tetrahydroisoquinolin-7-yl)amino]quinazolin-7-yl}-3-methylbenzonitrile]", "values": [{"measurement": "pIC50", "value": 6.87}]}
{"compound": "COc1cc2c(cc1Nc1ncc3ccc(-c4cnc5c(c4)OCCN5C)cc3n1)CNCC2", "note": "[Compound 1-29, N-(6-methoxy-1,2,3,4-tetrahydroisoquinolin-7-yl)-7-(4-methyl-3,4-dihydro-2H-pyrido[3,2-b][1,4]oxazin-7-yl)quinazolin-2-amine]", "values": [{"measurement": "pIC50", "value": 7.07}]}
{"compound": "CCc1ccc(Nc2ncc3c(N)c(F)c(-c4cnc5c(c4C)NCCO5)cc3n2)cn1", "note": "[Compound 2-173, N~2~-(6-ethylpyridin-3-yl)-6-fluoro-7-(8-methyl-2,3-dihydro-1H-pyrido[2,3-b][1,4]oxazin-7-yl)quinazoline-2,5-diamine]", "values": [{"measurement": "pIC50", "value": 9.89}]}
{"compound": "COc1cc2c(cc1Nc1ncc3c(N)c(F)c(-c4ccc(-c5ncco5)cc4C)cc3n1)CN(C)CC2", "note": "[Compound 2-60, 6-fluoro-N~2~-(6-methoxy-2-methyl-1,2,3,4-tetrahydroisoquinolin-7-yl)-7-[2-methyl-4-(1,3-oxazol-2-yl)phenyl]quinazoline-2,5-diamine]", "values": [{"measurement": "pIC50", "value": 6.33}]}
{"compound": "COc1cc2c(cc1Nc1ncc3ccc(-c4cccc(CC#N)c4)cc3n1)CNCC2", "note": "[Compound 1-55, (3-{2-[(6-methoxy-1,2,3,4-tetrahydroisoquinolin-7-yl)amino]quinazolin-7-yl}phenyl)acetonitrile]", "values": [{"measurement": "pIC50", "value": 7.28}]}
{"compound": "COc1cc2c(cc1Nc1ncc3ccc(-c4cnc5c(c4C)NCCO5)cc3n1)CN(C)CC2", "note": "[Compound 1-4, N-(6-methoxy-2-methyl-1,2,3,4-tetrahydroisoquinolin-7-yl)-7-(8-methyl-2,3-dihydro-1H-pyrido[2,3-b][1,4]oxazin-7-yl)quinazolin-2-amine]", "values": [{"measurement": "pIC50", "value": 8.82}]}
{"compound": "Cc1c(-c2cc3nc(Nc4ccc5c(c4)C(C)(C)OC5=O)ncc3c(N)c2F)cnc2c1NCCO2", "note": "[Compound 2-41, 5-{[5-amino-6-fluoro-7-(8-methyl-2,3-dihydro-1H-pyrido[2,3-b][1,4]oxazin-7-yl)quinazolin-2-yl]amino}-3,3-dimethyl-2-benzofuran-1(3H)-one]", "values": [{"measurement": "pIC50", "value": 10.12}]}
{"compound": "COc1cc2c(cc1Nc1ncc3c(N)c(F)c(-c4cnc5c(c4C)NCCO5)cc3n1)C(C)N(C)CC2", "note": "(single isomer, unassigned) [Compound 2-35, (S or R)-6-fluoro-N^2-(6-methoxy-1,2-dimethyl-1,2,3,4-tetrahydroisoquinolin-7-yl)-7-(8-methyl-2,3-dihydro-1H-pyrido[2,3-b][14]oxazin-7-yl)quinazoline-2,5-diamine]", "values": [{"measurement": "pIC50", "value": 9.82}]}
{"compound": "COc1cc2c(cc1Nc1ncc3cc(Cl)c(-c4cnc5c(c4C)NCCO5)cc3n1)CN(C)CC2", "note": "[Compound 1-96, 6-chloro-N-(6-methoxy-2-methyl-1,2,3,4-tetrahydroisoquinolin-7-yl)-7-(8-methyl-2,3-dihydro-1H-pyrido[2,3-b][1,4]oxazin-7-yl)quinazolin-2-amine]", "values": [{"measurement": "pIC50", "value": 8.73}]}
{"compound": "COc1cc2c(cc1Nc1ncc3ccc(Oc4ccc(C(=O)N5CCN(C)CC5)cc4)cc3n1)CN(C)CC2", "note": "[Compound 4-6, [4-({2-[(6-methoxy-2-methyl-1,2,3,4-tetrahydro-isoquinolin-7-yl)amino]-quinazolin-7-yl}oxy)phen-yl](4-methylpiperazin-1-yl)methanone]", "values": [{"measurement": "pIC50", "value": 6.23}]}
{"compound": "CCC(=O)Nc1cncc(-c2ccc3cnc(Nc4cc5c(cc4OC)CCNC5)nc3c2)c1", "note": "[Compound 1-52, N-(5-{2-[(6-methoxy-1,2,3,4-tetrahydroisoquinolin-7-yl)amino]quinazolin-7-yl}pyridin-3-yl)propanamide]", "values": [{"measurement": "pIC50", "value": 7.96}]}
{"compound": "COc1cc2c(cc1Nc1ncc3ccc(NC4CC(OC)C4)cc3n1)CN(C)CC2", "note": "(centres unmarked) [Compound 3-51, N~7~-(3-methoxycyclobutyl)-N~2~-(6-methoxy-2-methyl-1,2,3,4-tetrahydroisoquinolin-7-yl)quinazoline-2,7-diamine]", "values": [{"measurement": "pIC50", "value": 6.63}]}
{"compound": "COc1cc2c(cc1Nc1ncc3ccc(-c4cccc(C(=O)NC5CC5)c4)cc3n1)CNCC2", "note": "[Compound 1-67, N-cyclopropyl-3-{2-[(6-methoxy-1,2,3,4-tetrahydroisoquinolin-7-yl)amino]quinazolin-7-yl}benzamide]", "values": [{"measurement": "pIC50", "value": 7.47}]}
{"compound": "CN1CCc2ccc(Nc3ncc4c(N)c(F)c(-c5cnc6c(c5Cl)NCCO6)cc4n3)cc2C1", "note": "[Compound 2-160, 7-(8-chloro-2,3-dihydro-1H-pyrido[2,3-b][1,4]oxazin-7-yl)-6-fluoro-N~2~-(2-methyl-1,2,3,4-tetrahydroisoquinolin-7-yl)quinazoline-2,5-diamine]", "values": [{"measurement": "pIC50", "value": 10.49}]}
